Earlier results in patent publication US20090035369A1, “Composition and Methods for Treating and Preventing Age-Related Macular Degeneration” (priority 2006, published 2009).

Legend:
[1] = pure DIM
neovascularization = details: rodent model
[2] = pure DIM; remark: listed apart in the source

solubility [1]: insoluble | absorption by the human body [2]: poorly absorbed
SMILES: c1ccc2c(Cc3c[nH]c4ccccc34)c[nH]c2c1 [DIM, 3,3′-diindolylmethane]
inhibition of neovascularization (neovascularization): up to 76%
